# Values joined by “and” are separate entries in the source; they are usually repeats but may differ in a detail not shown here. Equal values may be shown once.
# Experiments:
# Assay type in all cases: in vivo
# [1] = system: Matricaria inodora (scentless mayweed, MATIN); assay: Field trial, post-emergence % visual weed control, MATIN; conditions: 14DAA
# From the text: (§1) Except for the trials utilizing the OD formulations, Actirob B was applied at 0.5 or 1.0 liters per hectare (L/ha), or Polyglycol 26-2 was applied at 0.5 to 1.0 L/ha in all respective single and tankmixture treatments being evaluated.
# (§2) Trials were established as randomized complete blocks (RCBD) with three to four replicates. Individual treatments were 2-2.5 meters (m) wide and 6-20 m long. An untreated control was included in each trial. All trial sites had naturally occurring populations of weeds.
# (§3) Herbicides were applied with backpack or bicycle sprayers using compressed air, nitrogen (N2) or carbon dioxide (CO2) as a propellant. All sprayers delivered a uniform spray pattern that provided thorough coverage of the foliage using a water volume of 150-300 L/ha. All herbicides were applied post-emergence in the spring to early-summer At the time of herbicide applications, winter wheat crops were at the six-leaf to three-tiller stage. Broadleaf and grass weeds were at a similar stage of growth at the time of herbicide application, typically from five leaf to 3 tiller depending on the weed species and time of year.
# (§4) The treated plots and control plots were rated blind at various intervals after application. […] The control of the target weeds was visually assessed as percent control, compared to an untreated control plot. The assessments were based on a percent visual reduction in pest plant biomass and/or stand reduction of weed population.
# (§5) The efficacy of all treatments was assessed at 13-22 days after application (DAA) for an early season rating, 23-39 DAA for a mid-season rating, and 41-84 DAA for a late-season rating. The data were statistically analyzed using various statistical methods, generally including a Tukey's HSD Factorial Analysis of Variance with a significance level of 5%.
# (§6) Colby's equation was used to determine the herbicidal effects expected from the mixtures (Colby, S. R. Calculation of the synergistic and antagonistic response of herbicide combinations. Weeds 1967, 15, 20-22). A t-test (alpha=0.05) between Colby predictions and observed combinations was used to test for significant differences indicating synergy or antagonism using replicate data.
# (§7) Expected=A+B+C−(AB+AC+BC)/100+(ABC)/10,000
# [2] = system: Viola arvensis Murr. (field violet, VIOAR); assay: Field trial, post-emergence % visual weed control, VIOAR
# From the text: as §1, §2, §3, §4, §5, §6, §7
# [3] = system: Lamium purpureum L. (purple deadnettle, LAMPU); assay: Field trial, post-emergence % visual weed control, LAMPU; conditions: 15DAA, 3.75 g ai/ha
# From the text: as §1, §2, §3, §4, §5, §6, §7
# [4] = system: Matricaria recutita L. (wild chamomile, MATCH); assay: Field trial, post-emergence % visual weed control, MATCH; conditions: 3.75 g ai/ha
# From the text: as §1, §2, §3, §4, §5, §6, §7
# [5] = system: Stellaria media (L.) Vill. (common chickweed, STEME); assay: Field trial, post-emergence % visual weed control, STEME; conditions: 3.75 g ai/ha
# From the text: as §1, §2, §3, §4, §5, §6, §7
# [6] = system: Centaurea cyanus (cornflower, CENCY); assay: Field trial, post-emergence % visual weed control, CENCY
# From the text: as §1, §2, §3, §4, §5, §6, §7
# [7] = system: Galium aparine L. (catchweed bedstraw, GALAP); assay: Field trial, post-emergence % visual weed control, GALAP; conditions: 28DAA, 3 g ai/ha
# From the text: as §1, §2, §3, §4, §5
# (§8) Colby's equation was used to determine the herbicidal effects expected from the mixtures (Colby, S. R. Calculation of the synergistic and antagonistic response of herbicide combinations. Weeds 1967, 15, 20-22). […]
# [8] = system: Solanum nigrum L. (black nightshade, SOLNI); assay: Field trial, post-emergence % visual weed control, SOLNI; conditions: 6.25 g ai/ha
# From the text: as §1, §2, §3, §4, §5, §6, §7
# [9] = system: Consolida regalis S. F. Gray (branching larkspur, CNSRE); assay: Field trial, post-emergence % visual weed control, CNSRE
# From the text: as §1, §2, §3, §4, §5, §6, §7
# [10] = system: Agropyron repens L. (quackgrass, AGRRE); assay: Field trial, post-emergence % visual weed control, AGRRE; conditions: 14DAA, 4 g ai/ha
# From the text: as §1, §2, §3, §4, §5, §8
# [11] = system: Alopecurus myosuroides Huds. (blackgrass, ALOMY); assay: Field trial, post-emergence % visual weed control, ALOMY; conditions: 15DAA, 3 g ai/ha
# From the text: as §1, §2, §3, §4, §5, §8
# [12] = system: Apera spica-venti (L.) Beauv. (windgrass, APESV); assay: Field trial, post-emergence % visual weed control, APESV
# From the text: as §1, §2, §3, §4, §5, §6, §7
# [13] = system: Echinochloa crus-galli (L.) P. Beauv. (barnyardgrass, ECHCG); assay: Field trial, post-emergence % visual weed control, ECHCG; conditions: 6.25 g ai/ha
# From the text: as §1, §2, §3, §4, §5, §6, §7
smiles,measurement,setting,value
"COc1ncc(F)c2nc(S(=O)(=O)Nc3c(F)cccc3F)nn12 [Florasulam, N-(2,6-difluorophenyl)-8-fluoro-5-methoxy[1,2,4]triazolo[1,5-c]pyrimidine-2-sulfonamide]",Mean % Weed Control,[1]; 3 g ai/ha,30.0%
same,Mean % Weed Control,[1]; 4 g ai/ha,35.0%
same,Mean % Weed Control,"[2]; 14DAA, 3 g ai/ha",0.0%
same,Mean % Weed Control,"[2]; 56DAA, 4 g ai/ha",20.0%
same,Mean % Weed Control,[3],0.0%
same,Mean % Weed Control,[4]; 15DAA,10.0%
same,Mean % Weed Control,[4]; 61DAA,85.0% and 67.4%
same,Mean % Weed Control,[4]; 78DAA,76.3%
same,Mean % Weed Control,[5]; 15DAA,0.0%
same,Mean % Weed Control,[5]; 61DAA,68.8% and 56.1%
same,Mean % Weed Control,[5]; 78DAA,31.3%
same,Mean % Weed Control,"[6]; 28DAA, 3 g ai/ha",48.8%
same,Mean % Weed Control,"[6]; 28DAA, 4 g ai/ha",75.0%
same,Mean % Weed Control,"[6]; 56DAA, 3 g ai/ha",27.5% and 48.8%
same,Mean % Weed Control,"[6]; 77DAA, 3 g ai/ha",40.0%
same,Mean % Weed Control,"[6]; 77DAA, 4 g ai/ha",82.5%
same,Mean % Weed Control,"[6]; 84DAA, 4 g ai/ha",30.0%
same,Mean % Weed Control,[7],57.5%
same,Mean % Weed Control,[8]; 29DAA,40.0%
same,Mean % Weed Control,[8]; 56DAA,20.0%
same,Mean % Weed Control,"[9]; 31DAA, 3 g ai/ha",75.0%
same,Mean % Weed Control,"[9]; 31DAA, 4 g ai/ha",75.0%
same,Mean % Weed Control,"[9]; 53DAA, 3 g ai/ha",78.5%
same,Mean % Weed Control,"[9]; 53DAA, 4 g ai/ha",79.5%
same,Mean % Weed Control,"[9]; 84DAA, 3 g ai/ha",79%
same,Mean % Weed Control,"[9]; 84DAA, 4 g ai/ha",80%
same,Mean % Weed Control,[10],0.0%
same,Mean % Weed Control,[11],2.5%
same,Mean % Weed Control,"[12]; 14DAA, 3 g ai/ha",0.0%
same,Mean % Weed Control,"[12]; 14DAA, 4 g ai/ha",0.0%
same,Mean % Weed Control,"[12]; 28DAA, 3 g ai/ha",0.0%
same,Mean % Weed Control,"[12]; 28DAA, 4 g ai/ha",0.0%
same,Mean % Weed Control,"[12]; 56DAA, 3 g ai/ha",0.0%
same,Mean % Weed Control,"[12]; 56DAA, 4 g ai/ha",0.0%
same,Mean % Weed Control,[13]; 14DAA,20.0%
same,Mean % Weed Control,[13]; 29DAA,10.0%
same,Mean % Weed Control,[13]; 56DAA,10.0%

# From US20170156324A1 (Dow AgroSciences LLC, priority 2015, published 2017)
